# Measured values taken from a melting point compilation (Tetko et al.; mined from patent text by program, amines drawn as free bases though some values may be those of a salt).
row,SMILES,melting point [°C]
1,CCCCC(=O)c1c(-c2ccc3c(Br)c(OCC(=O)OCC)ccc3c2)oc2ccc(Cl)cc12,88 to 91
2,CCOC(=O)c1cn(CC)c2c(F)c(F)c(F)c(C)c2c1=O,197 to 198
3,NC1=C(NC=O)C(=O)N2CCN=C2N1,268
4,CCCc1c(OCC(O)COc2ccc3ccc(C(=O)O)cc3c2CCC)ccc(C(C)=O)c1O (stereo not drawn),125 to 126
5,Cc1c(NC(=O)CC(C)(C)C)c(C)c2c(C)coc2c1Cc1ccc(C(C)C)cc1,171 to 172
6,Cc1cc(=O)n(-c2cc(OC(C)C)c(Cl)cc2F)c(=O)n1C,149 to 151
7,COc1ccc(N(C(=O)CN2C(=O)CC(=O)N(c3ccncc3)c3ccccc32)C(C)C)cc1,211 to 213
8,Cc1ccc(C(=C/C=C/C(=O)Oc2ccc([N+](=O)[O-])cc2)c2ccc(C)cc2)cc1,154
9,COC(=O)c1cc(S(=O)(=O)c2ccc(C)cc2)cc2c1OC(c1ccc(OC)cc1)(c1ccc(OC)cc1)O2,79 to 82
10,CON1CCC2(CC1)C(O)=C(c1c(C)cc(C)cc1C)C(=O)N2CC1CC1,223 to 225
11,Cc1nc2c(N)nc3cc(OCCNC(=O)C(C)C)ccc3c2n1CC(C)C,205 to 206
12,CC(=O)N1N=C(c2ccc([N+](=O)[O-])c(C)c2)c2cc3c(cc2C=C1C)OCO3,115 to 116
13,CC(C)N(C(C)C)S(=O)(=O)N[C@@H](Cc1ccc(NC(=O)c2c(Cl)cncc2Cl)cc1)C(=O)O,151
14,CCOC(=O)Cn1c(-c2ccccc2)nc2cccnc21,93 to 95
15,O=C(O)c1ccccc1OCCN1CCC(c2cn(CCOc3ccc4c(c3)OCO4)c3ccccc23)CC1,123 to 125
16,CCCCc1nc2c(N)nc3cc(-c4ccc(OCCC)cc4)ccc3c2n1CC(C)C,194 to 197
17,Cc1cc([N+](=O)[O-])ccc1-c1ccc(-c2ccc([N+](=O)[O-])cc2C)o1,242 to 243
18,C[C@H](NC(=O)OC(C)(C)C)C(=O)OCCCNc1cccc2c1C(=O)c1ccccc1C2=O,58
19,Nc1cc(F)c(F)c(Br)c1Cl,83 to 86

row,SMILES,melting point [°C]
1,COC(=O)Cc1cccc(NC(=O)NCC(=O)N2[C@@H](c3ccccc3)SC[C@H]2C(=O)OC(C)(C)C)c1,69
2,CCOC(=O)c1c(O)c2cccnc2n(Cc2ccccc2)c1=O,143
3,CS(=O)(=O)c1ccc(-c2ncccc2C(=O)c2ccccn2)cc1,143 to 147
4,COC12CC(CN3CCC(c4c[nH]c5ccccc45)CC3)CN(C)C1Cc1c(Br)[nH]c3cccc2c13 (stereo not drawn),160 to 170
5,CC1(C(O)C(N)=O)CC=CCC1 (stereo not drawn),102 to 110
6,CN1Cc2c(C#CI)ncn2-c2cccc(Cl)c2C1=O,215 to 216
7,CC#CCOc1ccc(S(=O)(=O)NC(C(=O)NO)C(C)(C)SCCN2CCOCC2)cc1 (stereo not drawn),72
8,CC1CC(=O)NN=C1c1ccc(NC(=NC#N)NCCc2ccccc2)cc1 (stereo not drawn),209 to 210
9,O=C1CCC(N2Cc3c(CNC(=O)Nc4ccc(Cl)c(Cl)c4)cccc3C2=O)C(=O)N1 (stereo not drawn),253 to 255
10,COc1ccnc(CSc2nc3cc4c(cc3[nH]2)OCO4)c1C,215 to 220
11,CN(C)C(=O)CN1CCc2ccc([N+](=O)[O-])cc2CC1,94 to 96
12,Nc1ncnc2c1ncn2OCC/C=C/P(=O)(O)O,238
13,N=C(N)c1ccc(N2CC(CN3CCN(CCC(=O)O)CC3)OC2=O)cc1 (stereo not drawn),269
14,O=C(O)COc1ccc(C(=O)Nc2ccccc2Sc2ccccc2-c2nnn[nH]2)cc1,252 to 253
15,O=S(=O)(c1ccc(Cl)cc1)C(c1ccncc1)C1CCCC1 (stereo not drawn),133 to 135
16,CCC(C)n1ncn(-c2ccc(N3CCN(c4ccc(O)cc4)CC3)cn2)c1=O (stereo not drawn),144 to 145
17,CC(C)(C)OC(=O)NC1CCCOCC=CC2CC2(C(=O)NS(=O)(=O)C2CC2)NC(=O)C2CC(OC(=O)NCC3CCCCC3)CN2C1=O (stereo not drawn),142 to 144
18,Cc1nnn2c1CO[C@H]1CN(C(=O)OC(C)(C)C)C[C@@H]12,195 to 196
19,CSc1nc(N)nc2c1ncn2COCCO,188 to 191

row,SMILES,melting point [°C]
1,CC(=O)SCC(CC(C)C)C(=O)NCCCCCCCC(=O)N[C@@H](CCCNC(=N)N)C(=O)O (stereo partly drawn),85 to 102
2,N#Cc1nn(-c2c(Cl)cc(C(F)(F)F)cc2Cl)c(F)c1S(=O)(=O)C(F)(F)F,95 to 98
3,CC(c1ccc(CCn2cnc3cc(-c4ccc(Cl)cc4)sc3c2=O)cc1)N1CCCCC1 (stereo not drawn),175 to 179
4,CCS(=O)(=O)c1cc(C(=O)NCC2CCCN2CC2=CCCC2)c(OC)cc1N (stereo not drawn),125 to 126
5,CC(C)CN1CCC(N(C)S(=O)(=O)c2ccc(Nc3nccc(Nc4ccc(F)cc4)n3)cc2)CC1,194 to 195
6,CC(Cn1cc(Sc2ccccc2)c2ccccc21)N(O)C(N)=O (stereo not drawn),73 to 76
7,CCOC(=O)c1nc(-c2ccc(Cl)cc2Cl)c(-c2ccc(Br)cc2)s1,129 to 130
8,"CC(C)=CCCC(C)CCS(=O)c1nc2ccccc2[nH]1 (single isomer, unassigned; (+))",122 to 124
9,COc1ccc(Cn2c(=O)[nH]c(=O)c3[nH]c(C(C)C)nc32)cc1OC1CCCC1,282 to 283
10,CCNC(=O)c1c(Cl)ccc(N(C)C)c1[Si](C)(C)C,179 to 180
11,CN(C)Cc1ncc2c(c1O)COC2(c1ccccc1)c1ccc(F)cc1 (stereo not drawn),184
12,O=C(O)COc1cccc2c1CCc1sc(SC(c3ccccc3)c3ccccc3)nc1-2,176 to 179
13,COc1cc(CO)cc(OC)c1OCCO,26 to 28
14,CC(C)OC(=O)N1CCC(c2nc3cc(-c4ccc(S(C)(=O)=O)cc4F)ccc3o2)CC1,96.5 to 101
15,Cn1c(-c2ccc(OC3CCN(C4CCC4)CC3)cc2)nc2cccnc2c1=O,182 to 183
16,COc1cc2c(cc1OC)C(=Cc1cc(O)ccc1[N+](=O)[O-])OC2=O,253
17,CCCn1cc2c(C3C(=O)Nc4ccc(Br)cc43)nc(NCC(C)N)nc2n1 (stereo not drawn),247 to 250
18,N#CCC(=O)N[C@H]1CC[C@H](CCN2CCN(c3nccc4c3CCO4)CC2)CC1,188

# Further lines, results first:
row,melting point [°C],SMILES
1,176 to 178,CC(=O)OCc1c(Br)cccc1N1Cc2cc(C(C)(C)C)ccc2C1=O
2,140 to 143,COc1ccc(S(C)(=O)=O)cc1C=O
3,240 to 242,O=c1c2ccccc2[nH]c2c1cnn2-c1ccccn1
4,103 to 104,COC(=O)c1cc(Oc2ccnc(Cl)c2)cc2ccccc12
5,> 210,NCc1cc(-c2csc(N=C(N)N)n2)ccn1
6,184 to 186,CC1Nc2ccc(-c3ccc(F)c(C#N)c3)cc2C(C)(C)O1 (stereo not drawn)
7,142 to 144,CCOc1ccc2nc(Cl)c(C=NOC)cc2c1
8,114 to 116,CCOC(=O)c1ccc(NC(C)=O)c(CC(O)CO)c1 (stereo not drawn)
9,95 to 96,CCCOc1ccc(CCCOc2nn(C)cc2CC(=O)O)c(Oc2ncc(C(F)(F)F)cc2Cl)c1
10,242 to 243,O=C1NN=C(c2ccc(NC(=O)C(F)(F)F)cc2)C2CC12 (stereo not drawn)
11,> 350,O=c1ccc2cnc(Nc3ccccc3)nc2[nH]1
12,121 to 122,O=C1CCCc2nc(C#Cc3ccccc3)ccc21
13,193 to 195,CN(C)CCN(C(=O)N(C)C)c1nc2ccccc2[nH]1
14,216 to 218,NC(=O)C=Cc1cccc(NC(=O)c2cc(-c3cccc(F)c3)ccc2F)c1
15,182 to 184,CC(C)c1nc(C(O)(C(F)(F)F)C(F)(F)F)[nH]c1-c1ccc(S(C)(=O)=O)cc1
16,185 to 188,O=C(O)C1=Cc2cc(Cl)c(-c3ccccc3)cc2OC1C(F)(F)F (stereo not drawn)
17,97 to 98,COc1ccccc1C(=O)c1cccc(Br)n1
18,205 to 208,COC(=O)c1oc2ccc(Cl)cc2c1-c1ccccc1C(F)(F)F
19,120 to 121,CCOC(=O)CNC(=S)NC(Cc1ccc(OC)cc1)=Nc1ccccc1
20,143 to 146,Cc1n[nH]c(=O)n(Cc2ccccc2)c1=O
21,118 to 120,CC1(C)OC(c2ccc(S(C)(=O)=O)cc2)=C(c2ccc(OC(F)(F)F)cc2)C1=O

row,melting point [°C],SMILES
1,86,O=C(O)CCc1ccc(CCNC(=O)C2Cc3ccccc3N2S(=O)(=O)c2ccc(-c3cccc(C(F)(F)F)c3)cc2)cc1 (stereo not drawn)
2,125 to 127,FC(F)(F)c1ccc(CN2CC=C(/C=C/c3ccccc3)CC2)cc1
3,144 to 145,COn1c(C)nc(N2CCc3ccccc3CC2)c(C#N)c1=O
4,82 to 84.5,COC(=O)CCC(=O)c1ccc(C)cc1OCC(O)CNC(C)(C)C (stereo not drawn)
5,113 to 115,OC1CCCc2ccc(OCc3ccc4ccccc4n3)cc21 (stereo not drawn)
6,176 to 178,O=C1CCC(O)=C1Cc1cccc(CCNS(=O)(=O)c2ccc(Cl)cc2)c1
7,95 to 97,CS(=O)(=O)c1ccc(-n2cc(-c3ccc(OC(F)(F)F)cc3)nc2-c2ccc(Cl)cc2)cc1
8,186 to 189,N=C(N)c1ccc(O)c(C(=O)c2ccccc2)c1
9,165 to 166,O=C(CC(O)C(F)(F)F)c1cc(Cl)cc(Cl)c1 (stereo not drawn)
10,133,FC(F)(F)c1cccc(N=C=S)c1
11,180,CCCCN1C(=O)NC(=Cc2ccc(C=O)cc2)C1=O
12,> 250,O=C1OC2(CCC(N3CCN(c4ccc(F)cc4)CC3)CC2)c2cc(F)ccc21 (stereo not drawn)
13,165,COc1ccc(C=N[C@H]2C(O)O[C@H](CO)[C@@H](O)[C@@H]2O)cc1 (stereo partly drawn)
14,253 to 254,O=c1nc(-c2ccccn2)sc2ccc(Br)cc12
15,129 to 130,Cc1ccc(-c2cc3cc(Cl)c(Cl)cc3o2)cc1
16,274 to 275,c1ccc(Cn2ccnc2-c2nnn[nH]2)cc1
17,170 to 172,CCC(CC)(CC(=O)Nc1cccc(/C=C/c2nc(C3CCC3)cs2)c1)C(=O)O
18,214,O=C(NN=Cc1cccc2ccccc12)c1cc2ccccc2cc1O
19,161 to 163,Nc1cc(-c2nnc(CCc3cccc(C(F)(F)F)c3)o2)ccn1
20,127,O=C(Sc1ccccn1)c1ccc(I)cc1
21,203 to 204,CC(C)c1ccc(NC(=O)N(C)C2N(C)C(c3ccc(F)cc3)=NC2(C(F)(F)F)C(F)(F)F)cc1 (stereo not drawn)
